According to ChEMBL document CHEMBL1201862, “PubChem BioAssay data set” (2004):
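Where inhibition never reached the appropriate level, the endpoint shown equals the highest concentration tested. Otherwise, values were interpolated linearly from a five-concentration, 48-hour dose response in 96-well plates. GI50 is the concentration that inhibits growth by half.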 Active and inactive are the calls of the source. Rule as the data show it: active = GI50 up to about 1.1 µM and inactive = higher.

Experiments:
Assay in all cases: NCI tumour cell line growth inhibition, 48 h
[1] = system: CCRF-CEM
[2] = system: NCI-H522
[3] = system: SW-620
[4] = system: HT-29
[5] = system: EKVX
[6] = system: SK-MEL-28
[7] = system: SN12C
[8] = system: SF-268
[9] = system: SNB-75
[10] = system: PC-3
[11] = system: 786-0
[12] = system: T47D
[13] = system: MDA-MB-435
[14] = system: OVCAR-5
[15] = system: RPMI-8226
[16] = system: HOP-92
[17] = system: IGROV-1
[18] = system: OVCAR-4
[19] = system: CAKI-1
[20] = system: OVCAR-8
[21] = system: NCI-H460
[22] = system: NCI-H226
[23] = system: BT-549
[24] = system: ACHN
[25] = system: Hs-578T
[26] = system: SF-295
[27] = system: SR
[28] = system: SK-MEL-5
[29] = system: SK-MEL-2
[30] = system: DU-145
[31] = system: MDA-N
[32] = system: HOP-62
[33] = system: NCI-H23
[34] = system: KM12
[35] = system: K562
[36] = system: HCT-15
[37] = system: U-251
[38] = system: MDA-MB-231
[39] = system: SK-OV-3
[40] = system: UACC-62
[41] = system: HCT-116
[42] = system: NCI/ADR-RES
[43] = system: Malme-3M
[44] = system: UACC-257
[45] = system: UO-31
[46] = system: A549
[47] = system: HCC 2998
[48] = system: RXF 393
[49] = system: MOLT-4
[50] = system: LOX IMVI
[51] = system: OVCAR-3
[52] = system: SF-539
[53] = system: MCF7
[54] = system: TK-10
[55] = system: A498
[56] = system: HL-60
[57] = system: M14
[58] = system: COLO 205
[59] = system: SNB-19

Question: For `CN(C)c1ccc(-c2ccc(N(C)C)c3n[se]nc23)c2n[se]nc12`, which GI50 [1] is on record?
Answer: > 100 µM (inactive)

Question: And the GI50 [2]?
Answer: > 100 µM (inactive)

Question: What about the GI50 [3] of the same compound?
Answer: > 100 µM (inactive)

Question: What about the GI50 [4] of the same compound?
Answer: > 100 µM (inactive)

Question: What about the GI50 [5] of the same compound?
Answer: > 100 µM (inactive)

Question: What about the GI50 [6] of the same compound?
Answer: > 100 µM (inactive)

Question: And the GI50 [7]?
Answer: > 100 µM (inactive)

Question: What about the GI50 [8] of the same compound?
Answer: > 100 µM (inactive)

Question: And the GI50 [9]?
Answer: > 100 µM (inactive)

Question: And the GI50 [10]?
Answer: > 100 µM (inactive)

Question: What about the GI50 [11] of the same compound?
Answer: > 100 µM (inactive)

Question: And the GI50 [12]?
Answer: > 100 µM (inactive)

Question: And the GI50 [13]?
Answer: > 100 µM (inactive)

Question: What about the GI50 [14] of the same compound?
Answer: > 100 µM (inactive)

Question: And the GI50 [15]?
Answer: > 100 µM (inactive)

Question: What about the GI50 [16] of the same compound?
Answer: > 100 µM (inactive)

Question: What about the GI50 [17] of the same compound?
Answer: > 100 µM (inactive)

Question: What about the GI50 [18] of the same compound?
Answer: > 100 µM (inactive)

Question: What about the GI50 [19] of the same compound?
Answer: > 100 µM (inactive)

Question: And the GI50 [20]?
Answer: > 100 µM (inactive)

Question: What about the GI50 [21] of the same compound?
Answer: > 100 µM (inactive)

Question: And the GI50 [22]?
Answer: > 100 µM (inactive)

Question: And the GI50 [23]?
Answer: > 100 µM (inactive)

Question: And the GI50 [24]?
Answer: > 100 µM (inactive)

Question: And the GI50 [25]?
Answer: 88.1 µM (inactive)

Question: What about the GI50 [26] of the same compound?
Answer: > 100 µM (inactive)

Question: What about the GI50 [27] of the same compound?
Answer: > 100 µM (inactive)

Question: What about the GI50 [28] of the same compound?
Answer: > 100 µM (inactive)

Question: And the GI50 [29]?
Answer: > 100 µM (inactive)

Question: And the GI50 [30]?
Answer: > 100 µM (inactive)

Question: And the GI50 [31]?
Answer: > 100 µM (inactive)

Question: And the GI50 [32]?
Answer: > 100 µM (inactive)

Question: And the GI50 [33]?
Answer: > 100 µM (inactive)

Question: And the GI50 [34]?
Answer: > 100 µM (inactive)

Question: And the GI50 [35]?
Answer: > 100 µM (inactive)

Question: What about the GI50 [36] of the same compound?
Answer: > 100 µM

Question: What about the GI50 [37] of the same compound?
Answer: > 100 µM (inactive)

Question: What about the GI50 [38] of the same compound?
Answer: > 100 µM (inactive)

Question: What about the GI50 [39] of the same compound?
Answer: > 100 µM (inactive)

Question: And the GI50 [40]?
Answer: > 100 µM (inactive)

Question: And the GI50 [41]?
Answer: > 100 µM (inactive)

Question: And the GI50 [42]?
Answer: > 100 µM (inactive)

Question: And the GI50 [43]?
Answer: > 100 µM (inactive)

Question: And the GI50 [44]?
Answer: > 100 µM (inactive)

Question: And the GI50 [45]?
Answer: > 100 µM (inactive)

Question: And the GI50 [46]?
Answer: > 100 µM (inactive)

Question: And the GI50 [47]?
Answer: > 100 µM (inactive)

Question: What about the GI50 [48] of the same compound?
Answer: > 100 µM (inactive)

Question: And the GI50 [49]?
Answer: > 100 µM (inactive)

Question: And the GI50 [50]?
Answer: > 100 µM (inactive)

Question: What about the GI50 [51] of the same compound?
Answer: > 100 µM (inactive)

Question: And the GI50 [52]?
Answer: > 100 µM (inactive)

Question: What about the GI50 [53] of the same compound?
Answer: > 100 µM (inactive)

Question: And the GI50 [54]?
Answer: > 100 µM (inactive)

Question: And the GI50 [55]?
Answer: > 100 µM (inactive)

Question: What about the GI50 [56] of the same compound?
Answer: > 100 µM (inactive)

Question: What does the source list for `COc1ccc2nc3cccc([N+](=O)[O-])c3c(NCCC(=O)O)c2c1`?
Answer: GI50 [1]: 6.67 µM (inactive); GI50 [2]: 4.56 µM (inactive); GI50 [3]: > 10 µM (inactive); GI50 [4]: > 10 µM (inactive); GI50 [5]: > 10 µM (inactive); GI50 [6]: > 10 µM (inactive); GI50 [7]: > 10 µM (inactive); GI50 [8]: > 10 µM (inactive); GI50 [9]: > 10 µM (inactive); GI50 [10]: > 10 µM (inactive); GI50 [11]: > 10 µM (inactive); GI50 [12]: 7.5 µM (inactive); GI50 [13]: > 10 µM (inactive); GI50 [14]: > 10 µM (inactive); GI50 [15]: > 10 µM (inactive); GI50 [16]: > 10 µM (inactive); GI50 [17]: > 10 µM (inactive); GI50 [18]: > 10 µM (inactive); GI50 [19]: > 10 µM (inactive); GI50 [20]: > 10 µM (inactive); GI50 [21]: > 10 µM (inactive); GI50 [22]: > 10 µM (inactive); GI50 [23]: > 10 µM (inactive); GI50 [24]: > 10 µM (inactive); GI50 [25]: 9.14 µM (inactive); GI50 [26]: > 10 µM (inactive); GI50 [27]: > 10 µM (inactive); GI50 [28]: > 10 µM (inactive); GI50 [29]: > 10 µM (inactive); GI50 [30]: > 10 µM (inactive); GI50 [31]: > 10 µM (inactive); GI50 [32]: > 10 µM (inactive); GI50 [33]: > 10 µM (inactive); GI50 [34]: > 10 µM (inactive); GI50 [35]: > 10 µM (inactive); GI50 [36]: > 10 µM; GI50 [37]: > 10 µM (inactive); GI50 [57]: > 10 µM (inactive); GI50 [38]: > 10 µM (inactive); GI50 [39]: > 10 µM (inactive); GI50 [40]: > 10 µM (inactive); GI50 [41]: > 10 µM (inactive); GI50 [42]: > 10 µM (inactive); GI50 [43]: 4.51 µM (inactive); GI50 [44]: > 10 µM (inactive); GI50 [58]: 7.59 µM (inactive); GI50 [59]: > 10 µM (inactive); GI50 [46]: > 10 µM (inactive); GI50 [47]: > 10 µM (inactive); GI50 [48]: > 10 µM (inactive); GI50 [49]: 5.22 µM (inactive); GI50 [50]: > 10 µM (inactive); GI50 [51]: > 10 µM (inactive); GI50 [52]: > 10 µM (inactive); GI50 [53]: 5.78 µM (inactive); GI50 [54]: > 10 µM (inactive); GI50 [55]: > 10 µM (inactive); GI50 [56]: > 10 µM (inactive)
